From patent US11369111B2, “Synergistic composition of nematicide comprising of chalcones” (priority 2017, dated 2022)

Assays:
[1] = system: root knot nematodes in soil; test: Effect on root knot nematodes in soil; format: in vivo, Meloidogyne
cucumber crop = test: Effect on growth of cucumber plants in a poly house; format: in vivo
root-knot nematodes = test: Gall formation in roots of infected cucumber plants (root gall index); format: in vivo
[2] = system: P. aeruginosa (Gram negative); test: Effect of chalcones on common microorganisms (CFU on nutrient agar plates); format: cell-based, Pseudomonas aeruginosa; conditions: for Effect on microorganism (Colony Forming Units): 24-48 hours
Procedure: (§1) Two common soil microorganisms (Pseudomonas aeruginosa and Bacillus subtilis) and two common laboratory microorganisms (Escherichia coli, and Saccharomyces cerevisiae) were tested for the effects of individual chalcones. Microorganisms were grown on nutrient agar plates containing 10^−4, 10^−5, or 10^−6 M concentrations of chalcones and Colony Forming Units (CFU) were counted after 24-48 hours of growth in nutrient agar plates.

[3] = system: B. subtilis (Gram positive); test: as above; format: cell-based, Bacillus subtilis; conditions: for Effect on microorganism (Colony Forming Units): 24-48 hours
Procedure: as §1

E. coli (Gram negative) = test: as above; format: cell-based, Escherichia coli; conditions: for Effect on microorganism (Colony Forming Units): 24-48 hours
Procedure: as §1

Caenorhabditis elegans = conditions: 10^−4 M, laboratory conditions, individually; cited from earlier work
S. cerevisiae = test: Effect of chalcones on common microorganisms (CFU on nutrient agar plates); format: cell-based, Saccharomyces cerevisiae; conditions: for Effect on microorganism (Colony Forming Units): 24-48 hours
Procedure: as §1

SMILES: CNC(=O)Oc1cccc2c1OC(C)(C)C2 [Carbofuran]
- effect on nematodes in the soil ([1]; after 14 days, even at higher dosages): did not show any significant effect
- efficacy in killing and maintaining a small number of nematodes in soil ([1]; after 19 days of treatment (FIG. 17-19)): do not have the same positive effect
- increase in shoot length compared to untreated plants (cucumber crop; Day 10 (FIG. 3)): did not show similar positive effect
- increase in leaf length compared to untreated plants (cucumber crop; Day 10 (FIG. 6)): did not show similar positive effect
- increase in number of flowers compared to untreated plants (cucumber crop; Day 10 (FIG. 9)): did not show similar positive effect
- increase in shoot length compared to untreated plants (cucumber crop; Day 21 (FIG. 4)): did not have similar positive effect
- increase in leaf length compared to untreated plants (cucumber crop; Day 21 (FIG. 7)): did not show similar positive effect
- increase in number of flowers compared to untreated plants (cucumber crop; Day 21 (FIG. 10)): did not show similar positive effect
- increase in number of fruits compared to untreated plants (cucumber crop; Day 21 (FIG. 12)): did not show similar positive effect
- increase in number of fruits compared to untreated plants (cucumber crop; Day 21 (FIG. 13)): did not show similar positive effect
- increase in number of fruits compared to untreated plants (cucumber crop; Day 21 (FIG. 14)): did not show similar positive effect
- increase in shoot length compared to untreated plants (cucumber crop; Day 35 (FIG. 5)): did not show similar positive effect
- increase in leaf length compared to untreated plants (cucumber crop; Day 35 (FIG. 8)): did not show similar positive effect
- increase in number of flowers compared to untreated plants (cucumber crop; Day 35 (FIG. 11)): did not show similar positive effect
- Percentage Change compared to untreated, Average Leaf length (cucumber crop; after 28 days of treatment): 6%
- Percentage Change compared to untreated, Average Shoot length (cucumber crop; after 28 days of treatment): 3%
- Percentage Change compared to untreated, Average number of flowers (cucumber crop; after 28 days of treatment): −9%
- Percentage Change compared to untreated, Average number of fruits (cucumber crop; after 28 days of treatment): 50%
- Root gall index (Day 1) (root-knot nematodes; Day 1): 1
- Root gall index (Day 25 of treatment) (root-knot nematodes; Day 25 of treatment): 2 (2=1-25%)
- Root gall index (Day 45-20 days after second treatment) (root-knot nematodes; Day 45, 20 days after second treatment): 4 (4=51-75%)

SMILES: O=C(/C=C/c1ccccc1)c1ccc(Cl)cc1Cl [Chalcone 17, (2E)-1-(2,4-Dichlorophenyl)-3-phenyl-2-propen-1-one]
- effect on growth of microorganism [2]: limit the growth
- Effect on microorganism (Colony Forming Units) ([2]; 10^−4 M): 55.8
- Effect on microorganism (Colony Forming Units) ([2]; 10^−5 M): 53.9
- Effect on microorganism (Colony Forming Units) ([2]; 10^−6 M): 56.0
- effect on growth of microorganism [3]: limit the growth
- Effect on microorganism (Colony Forming Units) ([3]; 10^−4 M): 69.0
- Effect on microorganism (Colony Forming Units) ([3]; 10^−5 M): 51.4
- Effect on microorganism (Colony Forming Units) ([3]; 10^−6 M): 50.8
- Effect on microorganism (Colony Forming Units) (E. coli (Gram negative); 10^−4 M): 115.4
- Effect on microorganism (Colony Forming Units) (E. coli (Gram negative); 10^−5 M): 131.3
- Effect on microorganism (Colony Forming Units) (E. coli (Gram negative); 10^−6 M): 97.3
- nematicidal activity (Caenorhabditis elegans): shown nematicidal activity
- Effect on microorganism (Colony Forming Units) (S. cerevisiae; 10^−4 M): 97.0
- Effect on microorganism (Colony Forming Units) (S. cerevisiae; 10^−5 M): 82.8
- Effect on microorganism (Colony Forming Units) (S. cerevisiae; 10^−6 M): 106.7

SMILES: CCOc1ccc(C(=O)/C=C/c2ccccc2)cc1 [Chalcone 25, (2E)-1-(4-Ethoxyphenyl)-3-phenyl-2-propen-1-one]
- effect on growth of microorganism [2]: promote the growth
- Effect on microorganism (Colony Forming Units) ([2]; 10^−4 M): 148.8
- Effect on microorganism (Colony Forming Units) ([2]; 10^−5 M): 148.1
- Effect on microorganism (Colony Forming Units) ([2]; 10^−6 M): 141.2
- effect on growth of microorganism [3]: limit the growth
- Effect on microorganism (Colony Forming Units) ([3]; 10^−4 M): 55.1
- Effect on microorganism (Colony Forming Units) ([3]; 10^−5 M): 55.9
- Effect on microorganism (Colony Forming Units) ([3]; 10^−6 M): 83.6
- effect on growth of microorganism (E. coli (Gram negative)): does not affect the growth
- Effect on microorganism (Colony Forming Units) (E. coli (Gram negative); 10^−4 M): 52.3
- Effect on microorganism (Colony Forming Units) (E. coli (Gram negative); 10^−5 M): 69.6
- Effect on microorganism (Colony Forming Units) (E. coli (Gram negative); 10^−6 M): 103.3
- nematicidal activity (Caenorhabditis elegans): shown nematicidal activity
- effect on growth of microorganism (S. cerevisiae): does not affect the growth
- Effect on microorganism (Colony Forming Units) (S. cerevisiae; 10^−4 M): 97.8
- Effect on microorganism (Colony Forming Units) (S. cerevisiae; 10^−5 M): 125.4
- Effect on microorganism (Colony Forming Units) (S. cerevisiae; 10^−6 M): 90.3

SMILES: O=C(/C=C/c1ccccc1)c1cccs1 [Chalcone 30, (2E)-3-Phenyl-1-(2-thienyl)-2-propen-1-one]
- nematicidal activity (Caenorhabditis elegans): shown nematicidal activity
